Laboratory results reported in patent publication US11267814B2, “Compounds for bone growth” (OsteoQC Inc., priority 2013, dated 2022).

Tests used:
MC3T3 osteoblast cells = assay: Osteocalcin (OCN) secretion, bone formation marker, ELISA; type: cell-based, mouse; conditions: for IC100: Mus musculus
Description: Bone formation can also be assayed in vitro or in vivo using a serum marker for bone formation, osteocalcin (OCN), available from Biomedical Tecnhnologies, Inc. (Stoughton, Mass.). Following the manufacturer's protocol for the mouse osteocalcin EIA kit (described at the website www.btiinc.com/page/cata2.html#mouse_osteocalcin), bone formation in MC3T3 osteoblast cells was assayed by measuring the concentration of OCN.

sclerostin = molecular target: T1, sclerostin (Homo sapiens, UniProt Q9BQB4); assay: Modulation of sclerostin/Wnt activity (sclerostin inhibition assay): restoring Wnt3a signaling in the presence of sclerostin; type: cell-based; conditions: for Sclerostin Inhibition Assay; improvement over sclerostin alone.: IC100 class, Wnt3a signaling in human embryonic cells in presence of sclerostin
T1 construct: host or cells: human embryonic cells (reporter cells)
T1 sequence (Q9BQB4 24-213): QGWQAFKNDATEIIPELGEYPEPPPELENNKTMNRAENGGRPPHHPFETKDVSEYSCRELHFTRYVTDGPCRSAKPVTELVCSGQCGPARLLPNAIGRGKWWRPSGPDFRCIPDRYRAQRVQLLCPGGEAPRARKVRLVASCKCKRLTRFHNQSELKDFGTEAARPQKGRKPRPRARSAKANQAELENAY

[1] = system: MC3T3-E1 (mouse calvarial) osteoblast cells; assay: Rescue of sclerostin inhibition of mineralization (total calcium); type: cell-based; conditions: calcium concentration; for IC100: Mus musculus, MC3T3-E1, read-out: Sclerostin Inhibition of Mineralization, improvement over sclerostin alone.
Description: Mineralization (crystalline calcium phosphate formation) represents an in vitro model of bone formation. […] Following the protocol described in Li et al., Compounds were assayed for their ability to rescue the inhibition of mineralization by sclerostin in MC3T3 osteoblast cells.

[2] = IC100 class, OCN secreted from MC3T3 osteoblast cells treated with sclerostin
[3] = IC100 class, MC3T3 osteoblast cells treated with sclerostin
[4] = MC3T3 osteoblast cells, result in words

Compound | Sclerostin Inhibition Assay; improvement over sclerostin alone. (sclerostin) | effect on Wnt3a signaling (sclerostin; human embryonic cells, result in words) | IC100 (MC3T3 osteoblast cells; [2]) [µM] | IC100 [1, 3] [µM] | OSTEOCALCIN (Bone Formation Marker) (MC3T3 osteoblast cells; [2]) | effect on OCN secretion (MC3T3 osteoblast cells; [4]) | Sclerostin Inhibition of Mineralization; improvement over sclerostin alone. [1, 3] | effect on mineralization [1, 4]
COc1ccc2c(c1)[nH]c1c(C)nc(O)cc12 [Example 19, 7-methoxy-1-methyl-9H-pyrido[3,4-b]indol-3-ol] | ++ (++ indicates an IC100 < 10 μM) |  | < 10 | < 10 |  |  |  | 
COc1ccc2c3ccnc(C)c3n(CCN3CCNCC3)c2c1 [Example 16, 7-methoxy-1-methyl-9-(2-(piperazin-1-yl)ethyl)-9H-pyrido[3,4-b]indole] | ++ (++ indicates an IC100 < 10 μM) |  | < 10 | < 10 |  |  |  | 
CC(Cn1c2ccccc2c2ccccc21)N(C)C (stereo not drawn) [Example 2, 1-(9H-carbazol-9-yl)-N,N-dimethylpropan-2-amine] | + (+ indicates an IC100 > 10 μM) |  | > 10 | > 10 |  |  |  | 
Cc1nc(O)cc2c1[nH]c1cc(O)ccc12 [Example 20, 1-methyl-9H-pyrido[3,4-b]indole-3,7-diol] | + (+ indicates an IC100 > 10 μM) |  | > 10 | > 10 |  |  |  | 
Cc1nccc2c1[nH]c1cc(OC3CC3)ccc12 [Example 42, 7-cyclopropoxy-1-methyl-9H-pyrido[3,4-b]indole] | + (+ indicates an IC100 > 10 μM) |  | > 10 | > 10 |  |  |  | 
Cc1nccc2c1[nH]c1cc(OC(C)(F)F)ccc12 [Example 43, 7-(1,1-difluoroethoxy)-1-methyl-9H-pyrido[3,4-b]indole] | ++ (++ indicates an IC100 < 10 μM) |  | < 10 | < 10 |  |  |  | 
CCN(CC)CCCn1c2cc(OC)ccc2c2ccnc(C)c21 [Example 6, N,N-diethyl-3-(7-methoxy-1-methyl-9H-pyrido[3,4-b]indol-9-yl)propan-1-amine] | ++ (++ indicates an IC100 < 10 μM) |  | < 10 | < 10 |  |  |  | 
COc1ccc2c3ccnc(C)c3n(C(C)CN(C)C)c2c1 (stereo not drawn) [Example 5, 2-(7-methoxy-1-methyl-9H-pyrido[3,4-b]indol-9-yl)-N,N-dimethylpropan-1-amine] | ++ (++ indicates an IC100 < 10 μM) |  | < 10 | < 10 |  |  |  | 
Cc1nccc2c1[nH]c1cc(OCC3CC3)ccc12 [Example 46, 7-(cyclopropylmethoxy)-1-methyl-9H-pyrido[3,4-b]indole] | ++ (++ indicates an IC100 < 10 μM) |  | < 10 | < 10 |  |  |  | 
COc1ccc2c3ccnc(C)c3n(CCN3CCN(C(=O)OC(C)(C)C)CC3)c2c1 [Example 14, t-butyl 4-(2-(7-methoxy-1-methyl-9H-pyrido[3,4-b]indol-9-yl)ethyl) piperazine-1-carboxylate] | ++ (++ indicates an IC100 < 10 μM) |  | < 10 | < 10 |  |  |  | 
COc1ccc2c3ccnc(C)c3n(CCN(C)C)c2c1 [Example 7, 2-(7-methoxy-1-methyl-9H-pyrido[3,4-b]indol-9-yl)-N,N-dimethyl ethanamine] | ++ (++ indicates an IC100 < 10 μM) |  | < 10 | < 10 |  |  |  | 
Cc1nccc2c1[nH]c1cc(OC(F)F)ccc12 [Example 45, 7-(difluoromethoxy)-1-methyl-9H-pyrido[3,4-b]indole] | ++ (++ indicates an IC100 < 10 μM) |  | < 10 | < 10 |  |  |  | 

Now from value to compound, other results behind:

Sclerostin Inhibition Assay; improvement over sclerostin alone. (sclerostin) | effect on Wnt3a signaling (sclerostin; human embryonic cells, result in words) | Compound | IC100 (MC3T3 osteoblast cells; [2]) [µM] | IC100 [1, 3] [µM] | OSTEOCALCIN (Bone Formation Marker) (MC3T3 osteoblast cells; [2]) | effect on OCN secretion (MC3T3 osteoblast cells; [4]) | Sclerostin Inhibition of Mineralization; improvement over sclerostin alone. [1, 3] | effect on mineralization [1, 4]
++ (++ indicates an IC100 < 10 μM) |  | COc1ccc2c3ccnc(C(F)(F)F)c3n(CCN3CCOCC3C)c2c1 (stereo not drawn) [Example 29, 4-(2-(7-methoxy-1-(trifluoromethyl)-9H-pyrido[3,4-b]indol-9-yl)ethyl)-3-methylmorpholine] | < 10 | < 10 |  |  |  | 
+ (+ indicates an IC100 > 10 μM) |  | COc1ccc2c(c1)[nH]c1c(C)cncc12 [Example 41, 7-methoxy-4-methyl-5H-pyrido[4,3-b]indole] | > 10 | > 10 |  |  |  | 
− | antagonized Wnt3a signaling | sclerostin protein: SOST (Sclerostin) protein; antagonizes Wnt3a signaling and inhibits mineralization and OCN secretion in the assays |  |  | − | nearly complete loss of OCN secretion | − | significant decrease in mineralization
++ (++ indicates an IC100 < 10 μM) |  | COc1ccc2c3ccnc(C(F)(F)F)c3n(CCN3CCN(C(=O)OC(C)(C)C)CC3)c2c1 [Example 24, t-butyl 4-(2-(7-methoxy-1-(trifluoromethyl)-9H-pyrido[3,4-b]indol-9-yl)ethyl)piperazine-1-carboxylate] | < 10 | < 10 |  |  |  | 
++ (++ indicates an IC100 < 10 μM) |  | COc1ccc2c(c1)[nH]c1c(C)nc(F)cc12 [Example 38, 3-fluoro-7-methoxy-1-methyl-9H-pyrido[3,4-b]indole] | < 10 | < 10 |  |  |  | 
++ (++ indicates an IC100 < 10 μM) |  | COc1ccc2c3cc(F)nc(C)c3n(CCN3CCCCC3)c2c1 [Example 39, 3-fluoro-7-methoxy-1-methyl-9-(2-(piperidin-1-yl)ethyl)-9H-pyrido[3,4-b]indole] | < 10 | < 10 |  |  |  | 
++ (++ indicates an IC100 < 10 μM) |  | Oc1ccc2c3ccnc(C(F)(F)F)c3n(CCN3CCOCC3)c2c1 [Example 26, 9-(2-morpholinoethyl)-1-(trifluoromethyl)-9H-pyrido[3,4-b]indol-7-ol] | < 10 | < 10 |  |  |  | 
++ (++ indicates an IC100 < 10 μM) |  | COc1ccc2c3ccnc(C(F)(F)F)c3n(CCNCCO)c2c1 [Example 34, 2-((2-(7-methoxy-1-(trifluoromethyl)-9H-pyrido[3,4-b]indol-9-yl)ethyl)amino)ethanol] | < 10 | < 10 |  |  |  | 
++ (++ indicates an IC100 < 10 μM) |  | CC1COCCN1CCn1c2cc(O)ccc2c2ccnc(C(F)(F)F)c21 (stereo not drawn) [Example 30, 9-(2-(3-methylmorpholino)ethyl)-1-(trifluoromethyl)-9H-pyrido[3,4-b] indol-7-ol] | < 10 | < 10 |  |  |  | 
++ (++ indicates an IC100 < 10 μM) |  | CC1CN(CCn2c3cc(O)ccc3c3ccnc(C(F)(F)F)c32)CC(C)O1 (stereo not drawn) [Example 31, 9-(2-(2,6-dimethylmorpholino)ethyl)-1-(trifluoromethyl)-9H-pyrido[3,4-b]indol-7-ol] | < 10 | < 10 |  |  |  | 
+ (+ indicates an IC100 > 10 μM) |  | OCCN(CCO)CCn1c2cc(O)ccc2c2ccnc(C(F)(F)F)c21 [Example 36, 2,2′-((2-(7-hydroxy-1-(trifluoromethyl)-9H-pyrido[3,4-b]indol-9-yl)ethyl)azanediyl)diethanol] | > 10 | > 10 |  |  |  | 
